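Following 48 hours of exposure in 96-well plates, responses at five concentrations were used to interpolate endpoints linearly. GI50 marks 50% less growth. TGI denotes the concentration required for complete inhibition of growth.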
Legend:
Test in all cases: DTP human tumour cell line panel, 48 h
A498 renal = test system: A498 renal
A549 NSCLC = test system: A549 NSCLC
HCC-2998 colon = test system: HCC-2998 colon
HOP-62 NSCLC = test system: HOP-62 NSCLC
KM12 colon = test system: KM12 colon
OVCAR-4 ovarian = test system: OVCAR-4 ovarian
SK-MEL-5 melanoma = test system: SK-MEL-5 melanoma
UACC-257 melanoma = test system: UACC-257 melanoma
MALME-3M melanoma = test system: MALME-3M melanoma
UACC-62 melanoma = test system: UACC-62 melanoma

Compound | GI50 (A498 renal) [µM] | TGI (A498 renal) [µM] | GI50 (A549 NSCLC) [µM] | TGI (A549 NSCLC) [µM] | GI50 (HCC-2998 colon) [µM] | TGI (HCC-2998 colon) [µM] | GI50 (HOP-62 NSCLC) [µM] | TGI (HOP-62 NSCLC) [µM] | GI50 (KM12 colon) [µM] | TGI (KM12 colon) [µM] | GI50 (OVCAR-4 ovarian) [µM] | TGI (OVCAR-4 ovarian) [µM] | GI50 (SK-MEL-5 melanoma) [µM] | TGI (SK-MEL-5 melanoma) [µM] | GI50 (UACC-257 melanoma) [µM] | TGI (UACC-257 melanoma) [µM] | TGI (MALME-3M melanoma) [µM] | TGI (UACC-62 melanoma) [µM] | GI50 (MALME-3M melanoma) [µM] | GI50 (UACC-62 melanoma) [µM]
COC1=CC(c2ccc[nH]2)=N/C1=C\c1[nH]c(C)c(CC(=O)NCc2ccccc2)c1C | 1.28 | 2.71 | 1.66 | 3.15 | 1.55 | 3.07 | 1.51 | 2.95 | 1.12 | 2.59 | 1.35 | 2.93 | 1.53 | 2.89 | 1.72 | 3.17 |  |  |  | 
CCOC(=O)NC(=O)c1cn(CCN(CCO)C(=O)NCCCCCCNC(=O)N(CCO)CCn2cc(C(=O)NC(=O)OCC)c(=O)[nH]c2=O)c(=O)[nH]c1=O |  | > 100 |  | > 100 |  | > 100 |  | > 100 |  | > 100 |  | > 100 |  | > 100 |  | > 100 | > 100 | > 100 |  | 
N/C(=C\c1ccc(/C=C(\NC(=O)c2ccccc2)c2nc3c([nH]2)C(=O)c2ccccc2C3=O)cc1)c1nc2c([nH]1)C(=O)c1ccccc1C2=O |  | 29.9 |  | 36.5 |  |  |  |  |  | 29 |  | 34 |  | 31.5 |  | 36.2 |  | 27.8 |  | 
COc1nc2ccc(Cl)c(C(O)c3ccccc3)c2nc1OC (stereo not drawn) |  | 37.1 |  | 78.6 |  |  |  | 38.6 |  | > 100 |  | > 100 |  | 30.3 |  | 59.2 | > 100 | 96.3 |  | 
COC(Cc1cc(C(O)(c2ccc(C(C)(C)C)cc2)c2cc(CC(OC)(c3cc(C(OC)(c4ccc(C(C)(C)C)cc4)c4ccc(C(C)(C)C)cc4)c(C)cc3C)c3cc(C(OC)(c4ccc(C(C)(C)C)cc4)c4ccc(C(C)(C)C)cc4)c(C)cc3C)c(C)cc2C)c(C)cc1C)(c1cc(C(OC)(c2ccc(C(C)(C)C)cc2)c2ccc(C(C)(C)C)cc2)c(C)cc1C)c1cc(C(OC)(c2ccc(C(C)(C)C)cc2)c2ccc(C(C)(C)C)cc2)c(C)cc1C |  | > 75 |  | > 75 |  | > 75 |  | > 75 |  |  |  | > 75 |  | > 75 |  | > 75 | > 75 | > 75 |  | 
COc1cc(-c2n/c(=C\c3c(O)[nH]c4ccccc34)cc3c2=Nc2ccccc2-3)ccc1F | 40.4 | > 100 | 7.06 | 23.5 | 4.32 | > 100 | 4.68 | 17.3 | 7.7 | > 100 | 2.32 | 6.4 | 4.45 | 24.1 | 15 | 40 | 23.2 | 21.7 | 4.38 | 5.98
CCCC[n+]1ccn(-c2nc3ccccc3n2C)c1 |  |  |  | > 100 |  | > 100 |  | > 100 |  |  |  | > 100 |  | > 100 |  | > 100 | > 100 | > 100 |  | 
CN(CCO)CCC1COc2ccccc2O1 (stereo not drawn) |  | > 10 |  | > 10 |  | > 10 |  | > 10 |  | > 10 |  | > 10 |  | > 10 |  |  | > 10 | > 10 |  | 

— PubChem BioAssay (NCI)
